The text below walks through data of patent US8647119B1, “Methods and kits with fluorescent probes for caries detection” (President and Fellows of Harvard College, priority 2006, dated 2014).

Series [1] is described as follows: Detection probes on interproximal models of extracted human teeth. As to conditions: for optical signal of early stage caries lesion with bound probe (photograph): synthetic tooth preparation, FIG. 3-8. The protocol:
Interproximal models of extracted human teeth (molars and premolars) were fabricated using silicon impression materials. Interproximal enamel caries at about […] depth and at about 1.5 mm depth were prepared by using areas of interproximal contact regions. The dental preparations having synthetic caries were assessed by radiographic films (bitewings) and a microscope.
A cotton ball was saturated with the detection probe, and placed in contact with the region of the interproximal enamel caries. The bound probe was observed by illuminating over a varying set of different wavelengths of excitation light, followed by detecting light of fluorescent emissions. Furthermore, absorbance of the illuminating wavelengths was detected as appropriate for each probe.
Each tooth preparation having interproximal enamel caries and bound probe was illuminated and photographed.
(§1) Probes were tested for appropriate concentration, kinetics of binding and retention. Intensity of the illumination light, and the size of the illumination light beam were varied, and data were recorded for each probe. […] The concentration of each probe was varied to determine an optimum concentration for binding during a time period suitable for dental use. Durations of contacting were also tested, for example about 10 seconds, about 20 seconds, about 40 seconds, or about 60 seconds.

For series [2] the following is noted: part of regular human diet or excess excreted; cited from earlier work.
For series [3] the following is noted: cited from earlier work.
The nature of series [4]: Intensity and duration of fluorescence of diluted probes bound to caries. As to conditions: deep and shallow lesions. The protocol: as §1
Series [5] in a line: Hydrogen peroxide removal of OsteoSense 750 from five teeth having caries, absorbance at 750 nm. As to conditions: teeth A to E.

Values joined by “and” are separate entries in the source; they are usually repeats but may differ in a detail not shown here. Equal entries are not always repeated.

Turning to `C1=Cc2cc3ccc(cc4nc(cc5ccc(cc1n2)[nH]5)C=C4)[nH]3` [Porphyrin], the “optical signal of early stage caries lesion with bound probe (photograph)” value (from here on “optical signal … with bound probe (photograph)”) in series [1] is listed as “Fluorescence of an early stage caries lesion was observed”. For the same compound, the known toxicity result in series [2] is given as “no known toxicity”.

For `Cc1cc2nc3c(=O)[nH]c(=O)nc-3n(C[C@H](O)[C@H](O)[C@H](O)CO)c2cc1C` [Riboflavin], in series [3], the water solubility result is reported as “water soluble”.

With `CCN1C(=CC=CC=CC=CC2=[N+](CCCCCC(=O)O)c3ccc(S(=O)(=O)O)cc3C2(C)C)C(C)(C)c2cc(S(=O)(=O)[O-])ccc21` [Cy7], in series [4] (1:10 and 1:100 dilutions), the “fluorescent intensity compared to IR820 (ICG)” value is “greater fluorescent intensity at each concentration and lesion depth compared to IR820 (ICG)”. Moreover, the “retained fluorescence intensity compared to CardioGreen (ICG)” value in series [4] (diluted 1:10) is “retained much greater intensity in both deep and shallow lesions compared to images of CardioGreen (ICG) diluted 1:10”.

For `C=Cc1c(C)c2cc3nc(c4c5[n-]c(cc6nc(cc1[n-]2)C(C)=C6CC)c(C)c5C(=O)[C@@H]4C(=O)OC)[C@@H](CCC(=O)OC/C=C(\C)CCC[C@H](C)CCC[C@H](C)CCCC(C)C)[C@@H]3C.[Mg+2]` [Chlorophyll A], in series [1] (excitation light, emission detected, FIG. 9), the “interproximal caries observed with probe” value is “Interproximal caries were observed”. In series [1], the “optical signal … with bound probe (photograph)” value is “Fluorescence of an early stage caries lesion was observed”. Moreover, the known toxicity entry in series [2] was “no known toxicity”.

On to `OO` [hydrogen peroxide], for which the “% OsteoSense 750 removed (g)” value in series [5] is 80% and 93% and 88%.

For the compound `COc1cccc2c1C(=O)c1c(O)c3c(c(O)c1C2=O)C[C@@](O)(C(=O)CO)C[C@@H]3O[C@H]1C[C@H](N)[C@H](O)[C@H](C)O1` [Doxorubicin], in series [1], the “optical signal … with bound probe (photograph)” value is recorded as “Fluorescence of an early stage caries lesion was observed”.
